Data set [1] deals with human A549 lung cancer xenografts. The experiment in a line: A549 lung cancer xenograft, cells electroporated before implantation. The format is in vivo, NOD/SCID mice. As for the experimental part: The inventors assessed the growth-inhibitory activity of hsa-miR-126 in human lung cancer xenografts grown in immunodeficient mice. Hsa-miR-126 was delivered into A549 and H460 lung cancer cells via electroporation using the Gene Pulser Xcell™ (BioRad) with the following settings: 15×10^6 cells with 5 μg miRNA in 200 μl OptiMEM, square wave pulse at 150 V for 10 ms. Electroporated cells (5×10^6) were mixed with BD Matrigel™, (BD Biosciences; San Jose, Calif., USA; cat. no. 356237) in a 1:1 ratio and injected subcutaneously into the flank of NOD/SCID mice (Charles River Laboratories, Inc.; Wilmington, Mass., USA). As a negative control, A549 and H460 cells were electroporated with negative control (NC) miRNA (Pre-miR™ microRNA Precursor Molecule-Negative Control #2; Ambion cat. no. AM17111) as described above. To assess the anti-oncogenic activity of hsa-miR-126, six animals were injected with A459 cells and six animals were injected with H460 cells. NC miRNA-treated cells were injected into the opposite flank of the same animal to control for animal-to-animal variability. Once tumors reached a measurable size (A549 at 7 days post injection; H460 at 5 days post injection), the length and width of tumors were determined every day for up to 11 days. Tumor volumes were calculated using the formula, Volume=length X width X width/2, in which the length is greater than the width. For animals carrying A549 xenografts, tumor volumes derived from NC-treated cells and hsa-miR-126-treated cells were averaged and plotted over time (FIG. 4). The p value, indicating statistical significance, is shown for values obtained on day 18 (p=0.0125).

For data set [2], the system named is RWPE2 prostate cancer cells. The experiment in a line: Alamar Blue proliferation assay, RWPE2. The format is cell-based, human. Conditions: 30 nM, normalized to negative control miRNA (100% proliferation). From the text:
The inventors assessed the therapeutic effect of hsa-miR-126 for prostate cancer by using 4 individual human prostate cancer cell lines. To measure cellular proliferation of prostate cancer cells, the following prostate cancer cell lines were used: PPC-1, derived from a bone metastasis; Du145, derived from a brain metastasis; RWPE2, derived from prostate cells immortalized by human papillomavirus 18 and transformed by the K-RAS oncogene; and LNCaP, derived from a lymph node metastasis (Stone et al., 1978; Horoszewicz et al., 1980; Brothman et al., 1991; Pretlow et al., 1993; Bello et al., 1997). PPC-1 and Du145 cells lack expression of the prostate-specific antigen (PSA) and are independent of androgen receptor (AR) signaling. In contrast, RWPE2 and LNCaP cells test positive for PSA and AR. Cells were transfected with synthetic hsa-miR-126 (Pre-miR™-hsa-miR-126, Ambion cat. no. AM 17100) or negative control miRNA (NC; Pre-miR™ microRNA Precursor Molecule-Negative Control #2; Ambion cat. no. AM17111) in a 96-well format using a lipid-based transfection reagent. […] Proliferation was assessed 4-7 days post-transfection using Alamar Blue™ (Invitrogen) following the manufacturer's instructions. […] Fluorescent light units (FLU) were measured after 3 hours, normalized to the control, and plotted as percent change in proliferation. […]
Background: The colour change of resazurin is a common sign of viable cells or microbes.

Data set [3] deals with established H460 lung tumors. The experiment in a line: Established H460 lung tumors, intratumoral injections. Conditions: H460, 6.25 μg intratumoral with siPORT amine on days 11, 14, 17. The format is in vivo, NOD/SCID mice. From the text:
Delivery of hsa-miR-126 into human lung cancer cells prior to implantation into the animal inhibited the formation of lung tumor xenografts. […] To explore this possibility, each 3×10^6 human H460 non-small lung cancer cells were mixed with BD Matrigel™, (BD Biosciences; San Jose, Calif., USA; cat. no. 356237) in a 1:1 ratio and subcutaneously injected into the lower back of 23 NOD/SCID mice (Charles River Laboratories, Inc.; Wilmington, Mass., USA). Once animals developed palpable tumors (day 11 post xenograft implantation), a group of six animals received intratumoral injections of each 6.25 μg hsa-miR-126 (Dharmacon, Inc., Lafayette, Colo., USA) formulated with the lipid-based siPORT™ amine delivery agent (Ambion, Austin, Tex.; cat. no. AM4502) on days 11, 14 and 17. A control group of six animals received intratumoral injections of each 6.25 μg negative control miRNA (NC; Dharmacon, Lafayette, Colo.), following the same injection schedule that was used for hsa-miR-126. Given an average mouse weight of 20 g, this dose equals 0.3125 mg/kg. […] Caliper measurements were taken every 1-2 days, and tumor volumes were calculated using the formula, Volume=length×width×width/2, in which the length is greater than the width.

“hsa-miR-126 (UCGUACCGUGAGUAAUAAUGC; synthetic pre-miR form, further chemistry not given here) [Synthetic hsa-miR-126 (Pre-miR™-hsa-miR-126, Ambion cat. no. AM17100)]”: the “tumor size relative to control tumors” value in data set [1] (A549, day 18, n=6) is reported as “all animals showed smaller tumors”. In data set [1] (A549 cells electroporated with miRNA before s.c. implantation), the “tumor growth in vivo” value is given as “inhibited tumor growth in vivo”. The “Ki-67 antigen in tumors (histology)” value in data set [1] (A549 tumors) was “diminished levels of the Ki-67 antigen”. In data set [2], the “% proliferation” value was 91.82%. Also, the “growth of established tumors” value in data set [3] is on record as “robustly inhibited growth of established H460 lung tumors”.

The values above are taken from patent US20090131354A1, “miR-126 REGULATED GENES AND PATHWAYS AS TARGETS FOR THERAPEUTIC INTERVENTION” (priority 2007, published 2009).
